# Measurements published in US7524490B2, “Clusterin-mediated inhibition of apoptosis via stromal bone marrow cell delivery to a cardiac site” (Board of Regents of the University of Texas System, priority 2004, dated 2009).
# Assays:
# stem cells = assay: Clusterin pretreatment of stem cells in serum-free conditioned medium; assay type: cell-based, mouse; conditions: 20-30 μg/ml clusterin, 24 hours, preliminary data
# Protocol: Stem cell culture and treatment with oxysterols and cytokines. Mouse stem cells were used in this in vitro study. Two groups of proapoptotic agents were used to induce apoptosis of stem cells: oxysterols and cytokines. In group 1, stem cells were treated with 7-ketocholesterol (7-KC) and 25-OH-cholesterol (25-OH—C), two oxysterols known to exist in abundantly in atherosclerotic lesions and to induce apoptosis in cardiovascular cells. Free cholesterol was used as controls. In group 2, stem cells were incubated with a combination of tumor necrosis factor (TNF)-α and interferon (IFN)-γ, two cytokines previously shown to induce apoptosis of stem cells. In addition, to determine whether the Fas death-signaling pathway is involved in apoptosis of stem cells, stem cells were treated with recombinant Fas ligand in the presence of IFN-γ.
# Clusterin treatment. In order to determine whether clusterin prevents apoptosis of stem cells, stem cells were pretreated with clusterin purified from serum or synthesized by use of recombinant technology. Stem cells were cultured in a serum-free, conditioned medium supplemented with 20-30 μg/ml clusterin for 24 hours. The preliminary data indicated no apoptosis under the culture condition with clusterin. […] Cells were analyzed for apoptosis using the following methods after treatment. […]
# [1] = tested on: murine cardiac stem cells; assay: Apoptosis of cardiac stem cells induced by serum starvation, with or without clusterin; assay type: cell-based, mouse; conditions: clusterin-containing DMEM medium, many cells died without clusterin
# Protocol: Treatment of stem cells in culture. An in vitro system was first employed to examine the protective effects of clusterin on stem cells. Stem cells were treated with clusterin at different concentrations in the cultures with or without proinflammatory cytokines or T lymphocytes pre-activated by mitogens. After 2-4 days of stimulation, cell survival and apoptosis were examined using a combination of techniques including flow cytometry, fluorescent microscopy, and radioactive isotope labeling, as described below. Control experiments were set up using other types of proteins, such as bovine albumin.
# (§1) Detection of apoptotic cells. Determination of apoptosis needs a combination of techniques in morphology and biochemistry. Apoptosis was detected using the following six techniques: 1) Light microscopy; 2) Fluorescent confocal scanning or non-confocal microscopy, 3). […] The signal of TdT-mediated dUTP nick end labeling (TUNEL) was detected by an anti-digoxigenin antibody conjugated with peroxidase, a reporter enzyme which catalytically generates a brown color product from the chromogenic substrate diaminobenzidine. […] DNA was precipitated in ethanol, and analyzed for fragmentation by 2% agarose gel electrophoresis with ethidium bromide. […] In this study, cell proliferation and apoptosis were analyzed by flow cytometry. […]
# [2] = Dot blotting of clusterin binding to filter-coated lipids; design: species or system mouse; conditions: 10 μg/well serum proteins from TG and WT mice, 30 min, room temperature; anti-clusterin detection
# Protocol: As a component of HDL, clusterin helps transport cholesterol crossing the cellular membrane. In atherosclerotic lesions, cholesterol-derived oxysterols accumulate and exert apoptotic effects on vascular cells. Usually, the cytotoxicity of oxysterols including 7-ketocholesterol is much greater than that of free cholesterol. […] Free cholesterol and 7-ketocholesterol dissolved in ethanol were loaded to a filter in a 96-well dot blotting device. 10 μg/well proteins from three TG and WT serum samples were incubated in the wells for 30 min at room temperate. After washing with PBS, the filter was incubated with anti-clusterin antibody (1:200), and then anti-goat IgG conjugated with peroxidase. The dot blotting was developed using an ECL kit. Furthermore, an increased binding activity to the oxysterol in the serum from clusterin transgenic mice, compared to these in wild type mouse serum (FIG. 10), was detected. Thus, clusterin appears to have a higher affinity to some oxidized cholesterol derivatives.
# [3] = tested on: vascular smooth muscle cells; assay: Oxysterol-induced internucleosomal DNA fragmentation and apoptosis in vascular smooth muscle cells; assay type: cell-based
# Description: FIG. 11 is an ethedium bromide-stained agarose gel loaded with DNA samples extracted from clusterin-transfected or non-transfected vascular smooth muscle cells.
# as §1, with “microscopy, 3). In situ labeling of DNA 3′ ends (TUNEL technique), 4) Electron microscopy, 5) DNA agarose gel electrophoresis, and 6) Flow cytometry. These techniques are describe more particularly as follows: 1) Light microscopy was applied routinely to analyze morphological changes of vascular cells. 2) Fluorescent confocal scanning or non-confocal microscopy was used to characterize cytoskeletal and nuclear alterations after immunofluorescent staining. DAPI or Hoechst dye was used for nuclear morphology under UV excitation.” for “microscopy,”
# [4] = tested on: aldehyde dehydrogenase-1 (ALDH-1); assay: Induction of aldehyde dehydrogenase expression in smooth muscle cells (immunoblot); assay type: cell-based, murine; conditions: recombinant human clusterin 0, 5, 25, 50 μg/ml; concentration-dependent
# Protocol: FIG. 13 is an immunoblot showing induction of aldehyde dehydrogenase-1 (ALDH-1) in murine vascular smooth muscle cells by treatment with recombinant human clusterin (apoJ) at different concentrations (lane 1, 0 μg/ml; lane 2, 5 μg/ml; lane 3, 25 μg/ml; lane 4, 50 μg/ml).
# Aldehyde dehydrogenase expression and vitamin A metabolism were investigated to determine whether clusterin exerts its protective effect through upregulation of genes involved in cellular detoxification. Aldehyde dehydrogenases (ALDHs) are a group of intracellular enzymes that mediate NAD-coupled oxidation of aldehydes to carboxylic acids. ALDH is probably most widely known for its role in clearance of acetaldehyde from beverage alcohol by conversion to acetic acid. This enzymes is also involved in retinol metabolism and mediates vitamin A function. Members of the ALDH family are diversed; some have broad substrate specificities (ALDH1 and ALDH2) and other ALDHs are tailored to specific reactions of intermediary metabolism (e.g., methyl malonic semialdehyde dehydrogenase in branched-chain amino acid metabolism). ALDH1 is primarily found in the liver and in adult stem cells including hematopoietic stem cells. […]
# KG-293 cells = assay: TNF-α-induced apoptosis in KG-293 cells with tetracycline-induced intracellular clusterin; assay type: cell-based, human
# Description: Transfection with clusterin cDNA. Initially a plasmid was constructed that contains a truncated form of clusterin cDNA with deletion of the sequence responsible for cross-membrane transport. Transfection of human embryonic 293 cell line with this plasmid leads to intracellular overexpression of a non-secreted form of clusterin. The clusterin gene is under control of a CMV promoter with tetracycline-sensitive elements. […] This plasmid will be used to deliver the truncated clusterin gene into stem cells. The cells will be selected using G418 as the plasmid contains a neomycin-resistant gene.
# A plasmid pKS7 that contains a truncated clusterin cDNA with deletion of the transmembrane domain and a neomycin-resistant gene was constructed. The truncated clusterin gene was under regulation by a CMV promoter with tetracycline-responding elements. Stable transfection of the human embryonic kidney cell line T-293 with pKS7 generates a stable cell line (KG-293) with clusterin overexpressed. As shown by Western blot, under stimulation with tetracycline (1 μg/ml) for 24 hours, KG-293 cells but not their precursors, T-293 cells, produced an intracellular form of clusterin at much higher levels (FIG. 7A). […] KG-293 cells overexpressing the intracellular form of clusterin also underwent dramatic alterations in morphology and proliferation. […]
compound,measurement,setting,value
"clusterin: sulfated, heterodimeric glycoprotein containing two 40 kDa chains joined by a five disulfide bond motif; native or recombinant",apoptosis of stem cells under culture condition with clusterin,stem cells,no apoptosis
same,"apoptosis of cardiac stem cells (morphology, acridine orange/ethidium bromide staining)",[1],no sign of apoptosis
same,binding to 7-ketocholesterol versus free cholesterol (dot blot intensity),[2],much higher intensities than free cholesterol
same,effect on oxysterol-induced DNA fragmentation and apoptosis in vascular cells,[3]; overexpression of clusterin by cDNA transfection,markedly reduces the DNA fragmentation and apoptosis
same,expression of ALDH in smooth muscle cells,[4],significantly induced expression of ALDH
same,effect on the pro-apoptotic effect of TNF-α,"KG-293 cells; KG-293 cells with intracellular overexpression of truncated clusterin (pKS7, tetracycline 1 μg/ml)",significantly attenuated
TNF-α [reference compound],induction of apoptosis in control KG-293 cells,"KG-293 cells; TNF-α 10 ng/ml for 24 and 48 hours, cells not exposed to tetracycline",markedly induced apoptosis
"CC(C)CCC[C@@H](C)[C@H]1CC[C@H]2[C@@H]3C(=O)C=C4C[C@@H](O)CC[C@]4(C)[C@H]3CC[C@]12C [7-ketocholesterol, reference compound]",induction of apoptosis of vascular smooth muscle cells (internucleosomal DNA fragmentation),[3]; exposure to oxysterol,can trigger apoptosis
